Test results reported in patent US10294234B2, “HIV inhibitor compounds” (priority 2017, dated 2019).

Tested on: HIV-1 (IIIB) in MT-4 cells
Experiment: MT-4 HIV assay
Type: cell-based
Conditions: HIV-1 (IIIB), MT-4 cells, 5 days, Cell Titer Glo; read-out: EC50
Summary of the method: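 MT-4 cells infected with HIV-1 IIIB (1:250 stock dilution) were incubated with 1:3 serially diluted compounds in RPMI with 10% FBS for 5 days at 37 °C. Cell Titer Glo luminescence was the readout. Plates included mock-infected wells, no-drug wells and 5 uM AZT controls.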

In the case of `COC(=O)N[C@H](C(=O)N[C@@H](Cc1ccc(C#Cc2ccc(N3CC4CC(C3)N4C3COC3)nc2)cc1)[C@@H](O)CN(Cc1c(F)cc(-c2ccc(F)cn2)cc1F)NC(=O)[C@@H](NC(=O)OC)C(C)(C)C(F)(F)F)C(C)(C)C(F)(F)F` [Example 139, Methyl ((5S,10S,11S,14S)-8-(2,6-difluoro-4-(5-fluoropyridin-2-yl)benzyl)-16,16,16-trifluoro-10-hydroxy-15,15-dimethyl-11-(4-((6-(6-(oxetan-3-yl)-3,6-diazabicyclo[3.1.1]heptan-3-yl)pyridin-3-yl)ethynyl)benzyl)-3,6,13-trioxo-5-(1,1,1-trifluoro-2-methylpropan-2-yl)-2-oxa-4,7,8,12-tetraazahexadecan-14-yl)carbamateate], the EC50 is reported as 3.92 nM.

Same assay, conditions: Human immunodeficiency virus 1, MT4, 120 h

Going from `COC(=O)N[C@H](C(=O)N[C@@H](Cc1ccc(C#Cc2ccc(N3CC4CCC(C3)N4CC3CN(C(=O)OC(C)(C)C)C3)nc2)cc1)[C@@H](O)CN(Cc1c(F)cc(-c2cnn(C(F)F)c2)cc1F)NC(=O)[C@@H](NC(=O)OC)C(C)(C)C(F)(F)F)C(C)(C)C(F)(F)F` [Example 110, tert-butyl 3-((3-(5-((4-((2S,3S)-4-(1-(4-(1-(difluoromethyl)-1H-pyrazol-4-yl)-2,6-difluorobenzyl)-2-((S)-4,4,4-trifluoro-2-((methoxycarbonyl)amino)-3,3-dimethylbutanoyl)hydrazinyl)-3-hydroxy-2-((S)-4,4,4-trifluoro-2-((methoxycarbonyl)amino)-3,3-dimethylbutanamido)butyl)phenyl)ethynyl)pyridin-2-yl)-3,8-diazabicyclo[3.2.1]octan-8-yl)methyl)azetidine-1-carboxylate] to `COC(=O)N[C@H](C(=O)N[C@@H](Cc1ccc(C#Cc2ccc(N3CC4CCC(C3)N4C3COC3)nc2)cc1)[C@@H](O)CN(Cc1ccc(-c2ccc(F)cn2)cc1)NC(=O)[C@@H](NC(=O)OC)C(C)(C)C(F)(F)F)C(C)(C)C(F)(F)F` [Example 111, Methyl ((5S,8S,9S,14S)-16,16,16-trifluoro-11-(4-(5-fluoropyridin-2-yl)benzyl)-9-hydroxy-15,15-dimethyl-8-(4-((6-(8-(oxetan-3-yl)-3,8-diazabicyclo [3.2.1]octan-3-yl)pyridin-3-yl)ethynyl)benzyl)-3,6,13-trioxo-5-(1,1,1-trifluoro-2-methylpropan-2-yl)-2-oxa-4,7,11,12-tetraazahexadecan-14-yl)carbamate], the EC50 falls from 30.8 nM to 7.22 nM (4.3-fold). The second is the more potent here.

Same assay, conditions: Human immunodeficiency virus 1, MT4, 120 h; HIV-1 (IIIB), MT-4 cells, 5 days, Cell Titer Glo; read-out: EC50

Going from `COC(=O)N[C@H](C(=O)N[C@@H](Cc1ccc(C#Cc2ccc(N3CC4CCC(C3)N4CC3CNC3)nc2)cc1)[C@@H](O)CN(Cc1c(F)cc(-c2cnn(C(F)F)c2)cc1F)NC(=O)[C@@H](NC(=O)OC)C(C)(C)C(F)(F)F)C(C)(C)C(F)(F)F` [Example 109, Methyl ((5S,8S,9S,14S)-8-(4-((6-(8-(azetidin-3-ylmethyl)-3,8-diazabicyclo[3.2.1]octan-3-yl)pyridin-3-yl)ethynyl)benzyl)-11-(4-(1-(difluoromethyl)-1H-pyrazol-4-yl)-2,6-difluorobenzyl)-16,16,16-trifluoro-9-hydroxy-15,15-dimethyl-3,6,13-trioxo-5-(1,1,1-trifluoro-2-methylpropan-2-yl)-2-oxa-4,7,11,12-tetraazahexadecan-14-yl)carbamate] to `COC(=O)N[C@H](C(=O)N[C@@H](Cc1ccc(C#Cc2ccc(N3C[C@@H](C)O[C@@H](C)C3)nc2)cc1)[C@@H](O)CN(Cc1c(F)cc(-c2cnn(C(F)F)c2)cc1F)NC(=O)[C@@H](NC(=O)OC)C(C)(C)C(F)(F)F)C(C)(C)C(F)(F)F` [Example 132, Methyl ((5S,8S,9S,14S)-11-(4-(1-(difluoromethyl)-1H-pyrazol-4-yl)-2,6-difluorobenzyl)-8-(4-((6-((2S,6R)-2,6-dimethylmorpholino)pyridin-3-yl)ethynyl)benzyl)-16,16,16-trifluoro-9-hydroxy-15,15-dimethyl-3,6,13-trioxo-5-(1,1,1-trifluoro-2-methylpropan-2-yl)-2-oxa-4,7,11,12-tetraazahexadecan-14-yl)carbamate], the EC50 falls from 59.7 nM to 18.2 nM (3.3-fold).

`COC(=O)N[C@H](C(=O)N[C@@H](Cc1ccc(C#Cc2ccc(N3CCN(C4COC4)CC3)nc2)cc1)[C@@H](O)CN(Cc1ccc(-c2cnn(C(F)F)c2)cc1)NC(=O)[C@@H](NC(=O)OC)C(C)(C)C(F)(F)F)C(C)(C)C(F)(F)F` [Example 113, Methyl ((5S,8S,9S,14S)-11-(4-(1-(difluoromethyl)-1H-pyrazol-4-yl)benzyl)-16,16,16-trifluoro-9-hydroxy-15,15-dimethyl-8-(4-((6-(4-(oxetan-3-yl)piperazin-1-yl)pyridin-3-yl)ethynyl)benzyl)-3,6,13-trioxo-5-(1,1,1-trifluoro-2-methylpropan-2-yl)-2-oxa-4,7,11,12-tetraazahexadecan-14-yl)carbamate] and `COC(=O)N[C@H](C(=O)NN(Cc1ccc(-c2cnn(C3CC3)c2)cc1)C[C@H](O)[C@H](Cc1ccc(C#Cc2ccc(N3CC4CCC(C3)N4C3COC3)nc2)cc1)NC(=O)[C@@H](NC(=O)OC)C(C)(C)C(F)(F)F)C(C)(C)C` [Example 117, Methyl ((5S,8S,9S,14S)-11-(4-(1-cyclopropyl-1H-pyrazol-4-yl)benzyl)-9-hydroxy-15,15-dimethyl-8-(4-((6-(8-(oxetan-3-yl)-3,8-diazabicyclo [3.2.1]octan-3-yl)pyridin-3-yl)ethynyl)benzyl)-3,6,13-trioxo-5-(1,1,1-trifluoro-2-methylpropan-2-yl)-2-oxa-4,7,11,12-tetraazahexadecan-14-yl)carbamate] are within 1.5-fold of each other in EC50: 6.01 nM for the first, 4.15 nM for the second.

First: COC(=O)N[C@H](C(=O)N[C@@H](Cc1ccc(C#Cc2cnc(N3CC4CCC(C3)N4C3COC3)nc2)cc1)[C@@H](O)CN(Cc1ccc(-c2ccn(C(F)F)n2)cc1F)NC(=O)[C@@H](NC(=O)OC)C(C)(C)C(F)(F)F)C(C)(C)C(F)(F)F [Example 118, Methyl ((5S,8S,9S,14S)-11-(4-(1-(difluoromethyl)-1H-pyrazol-3-yl)-2-fluorobenzyl)-16,16,16-trifluoro-9-hydroxy-15,15-dimethyl-8-(4-((2-(8-(oxetan-3-yl)-3,8-diazabicyclo[3.2.1]octan-3-yl)pyrimidin-5-yl)ethynyl)benzyl)-3,6,13-trioxo-5-(1,1,1-trifluoro-2-methylpropan-2-yl)-2-oxa-4,7,11,12-tetraazahexadecan-14-yl)carbamate]
Second: COC(=O)N[C@H](C(=O)N[C@@H](Cc1ccc(C#Cc2ccc(N3CC4CC(C3)N4C3COC3)nc2)cc1)[C@@H](O)CN(Cc1c(F)cc(-c2cc(F)ccn2)cc1F)NC(=O)[C@@H](NC(=O)OC)C(C)(C)C(F)(F)F)C(C)(C)C(F)(F)F [Example 140, Methyl ((5S,10S,11S,14S)-8-(2,6-difluoro-4-(4-fluoropyridin-2-yl)benzyl)-16,16,16-trifluoro-10-hydroxy-15,15-dimethyl-11-(4-((6-(6-(oxetan-3-yl)-3,6-diazabicyclo [3.1.1]heptan-3-yl)pyridin-3-yl)ethynyl)benzyl)-3,6,13-trioxo-5-(1,1,1-trifluoro-2-methylpropan-2-yl)-2-oxa-4,7,8,12-tetraazahexadecan-14-yl)carbamate]
The EC50 of the first is 2.1-fold higher: 10.6 nM for the first, 5.09 nM for the second. The second is the more potent here.

`COC(=O)N[C@H](C(=O)N[C@@H](Cc1ccc(C#Cc2ccc(N3C[C@H]4C[C@@H]3CN4C3COC3)nc2)cc1)[C@@H](O)CN(Cc1c(F)cc(-c2ccc(F)cn2)cc1F)NC(=O)[C@@H](NC(=O)OC)C(C)(C)C(F)(F)F)C(C)(C)C(F)(F)F` [Example 135, Methyl ((5S,10S,11S,14S)-8-(2,6-difluoro-4-(5-fluoropyridin-2-yl)benzyl)-16,16,16-trifluoro-10-hydroxy-15,15-dimethyl-11-(4-((6-((1R,4R)-5-(oxetan-3-yl)-2,5 diazabicyclo[2.2.1]heptan-2-yl)pyridin-3-yl)ethynyl)benzyl)-3,6,13-trioxo-5-(1,1,1-trifluoro-2-methylpropan-2-yl)-2-oxa-4,7,8,12-tetraazahexadecan-14-yl)carbamate] and `COC(=O)N[C@H](C(=O)N[C@@H](Cc1ccc(C#Cc2ccc(N3CCN4CCOC[C@H]4C3)nc2)cc1)[C@@H](O)CN(Cc1c(F)cc(-c2cc(F)ccn2)cc1F)NC(=O)[C@@H](NC(=O)OC)C(C)(C)C(F)(F)F)C(C)(C)C(F)(F)F` [Example 137, Methyl ((5S,8S,9S,14S)-11-(2,6-difluoro-4-(4-fluoropyridin-2-yl)benzyl)-16,16,16-trifluoro-8-(4-((6-((R)-hexahydropyrazino[2,1-c][1,4]oxazin-8(1H)-yl)pyridin-3-yl)ethynyl)benzyl)-9-hydroxy-15,15-dimethyl-3,6,13-trioxo-5-(1,1,1-trifluoro-2-methylpropan-2-yl)-2-oxa-4,7,11,12-tetraazahexadecan-14-yl)carbamate] are within 1.5-fold of each other in EC50: 3.64 nM for the first, 3.31 nM for the second.

`COC(=O)N[C@H](C(=O)N[C@@H](Cc1ccc(C#Cc2ccc(N3CCN4CCOC[C@H]4C3)nc2)cc1)[C@@H](O)CN(Cc1c(F)cc(-c2ccn(C3CC3)n2)cc1F)NC(=O)[C@@H](NC(=O)OC)C(C)(C)C(F)(F)F)C(C)(C)C(F)(F)F` [Example 136, methyl ((5S,8S,9S,14S)-11-(4-(1-cyclopropyl-1H-pyrazol-3-yl)-2,6-difluorobenzyl)-16,16,16-trifluoro-8-(4-((6-((R)-hexahydropyrazino[2,1-c][1,4]oxazin-8(1H)-yl)pyridin-3-yl)ethynyl)benzyl)-9-hydroxy-15,15-dimethyl-3,6,13-trioxo-5-(1,1,1-trifluoro-2-methylpropan-2-yl)-2-oxa-4,7,11,12-tetraazahexadecan-14-yl)carbamate] showed an EC50 of 3.85 nM.
